# What was measured:
# [1] = system: cells from suspension or adhesion culture of IMR90-1 under PFCD condition; test: Whole-cell patch clamp electrophysiology of PFCD cardiomyocytes; type: cell-based, human; conditions: IMR90-1 PFCD cardiomyocytes, day 30; FIG. 4k
# Text: Comparison was made between cells from suspension culture and cells from adhesion culture in terms of electrophysiology of cells by using a whole-cell patch clamp technique. For this purpose, IMR90-1 (from culture on MEF feeder) was suspension or adhesion cultured under PFDC condition. Cells were harvested on day 30 for the analysis. In action potential waveforms in the cells from suspension culture and the cells from adhesion culture, there was no significant difference between the cell populations in terms of RP (resting potential; around −60 mV) (FIGS. 4d and 4e) and APD90 (action potential duration; about 0.7 sec) (FIGS. 4d and 4g). […] ICa (Voltage-gated Ca channel current) was also higher in the cells from suspension culture than the cells from adhesion culture, but the difference was not significant (FIG. 4i). […] IKs (KCQN1 channel current) was higher in the cells from suspension culture than the cells from adhesion culture (FIG. 4j).
# [2] = system: mesoderm-related genes (MSGN1, T, MIXL1 and NODAL); test: Quantitative PCR for expression of mesoderm-related genes under PFCD condition; type: cell-based, human; conditions: IMR90-1; 2 μM CHIR99021 or 0.3 μM PMA alone, day 0 to day 2; mRNA on day 2; FIG. 3e
# Method: A human iPS cell line (IMR90-1 cultured on MEF feeder) was cultured in PFCD culture media, to which 2 μM CHIR99021 or 0.3 μM PMA or the both (CHIR99021+PMA) were added for early phase of cardiac differentiation (day 0 to day 2). On day 2, mRNA was extracted the cultured cells and analyzed by quantitative PCR for the expression of mesoderm-related genes (MSGN1, T, MIXL1 and NODAL) (FIG. 3e). As a control, cells were cultured similarly, but with DMSO in place of the test compounds. The gene expression level in the control cells was assigned to one. […] In contrast, the expression of the genes was reduced when PMA was added to the culture. However, the reduction in gene expression by PMA was counteracted and reversed when CHIR99021 was added in combination with PMA (in accordance with the optimal PFCD condition).
# A human iPS cell line (IMR90-1 from culture on MEF feeder) was cultured in PFCD media with one of 1 μM XAV939, 0.3 μM A419259, 10 μM AG1478 or 3 μM KY03-I, or all of them (XAV939+A419259+AG1478+KY03-I) in late phase of cardiac differentiation (day 3 to day 4). On day 4, mRNA was extracted from the cultured cells and analyzed by quantitative PCR for the expression of mesoderm-related genes (MSGN1, T, MIXL1 and NODAL) (FIG. 3f).
# [3] = system: monkey ES cell line transfected with an α-MHC promoter-driven GFP gene; conditions: culture with PMA (all six compounds); without PMA (other five compounds) only weak fluorescence; FIG. 3a
# Text: A monkey ES cell line transfected with an α-MHC promoter-driven GFP gene was suspension cultured under PFCD condition in culture media with PMA (with all the six compounds added) or without PMA (with the five compounds other than PMA added) (FIG. 2a). The cells from the culture with PMA are shown in the left-hand micrographs, and the cells from the culture without PMA are shown in the right-hand micrographs.
# IMR90-1 = test: Count of differentiated cardiomyocytes after culture under PFCD condition; type: cell-based, human; conditions: IMR90-1, PFCD suspension culture, day 14; FIG. 3d
# Text: The differentiated cardiomyocytes was counted in the cell population from suspension or adhesion culture under PFCD condition of the pluripotent stem cell lines. The counts of differentiated cells per 2×10^6 undifferentiated cells are shown in the graph of FIG. 2d. The differentiation was more induced by suspension culture than adhesion culture in most of the stem cell lines. The cell count, as well as the flow cytometry, was taken on day 14.
# To determine the contribution of each of the six compounds (CHIR99021, PMA, KY03-I, XAV939, AG1478, and A419259) to PFCD under suspension culture condition, IMR90-1 (from culture on MEF feeder) was cultured in media to which different combinations of five of the compounds were added. Cells from the culture were analyzed by flow cytometry using a cTnT antibody for staining. A part of the cells from culture were not treated with the primary antibody to serve as a negative control. Thirty thousand cells from each sample were loaded to a flow cytometer FACSCantoII.
# The differentiated cardiomyocytes was counted in a cultured cell population corresponding to that of FIG. 3c. […] The cell count, as well as the flow cytometry, was taken on day 14.
# [4] = system: monkey ES cell line transfected with an αMHC promoter-driven GFP gene; test: Chemical screening: GFP fluorometry for cardiac differentiation of monkey ES cells; type: cell-based, cynomolgus monkey; conditions: 0.03 to 0.3 μM in early phase, alone or in combination with KY02111 (10 μM in late phase); FIG. 1c
SMILES,"increase in APD90, cells from suspension culture compared with cells from adhesion culture [1]","expression of the mesoderm-related genes (MSGN1, T, MIXL1 and NODAL) vs DMSO control [2]",GFP fluorescence of colonies [3],cardiomyocyte count on omission of the compound from the six-compound culture (IMR90-1),increase of cardiac differentiation [4]
CCS(=O)(=O)N(C)[C@H]1c2cc(C#N)ccc2OC(C)(C)[C@@H]1O [Chromanol293B],significantly higher,,,,
Cc1cccc(CCN2CCC(C(=O)c3ccc(NS(C)(=O)=O)cc3)CC2)n1 [E4031],not significantly different,,,,
"CCCCCCCCCCCCCC(=O)O[C@@H]1[C@@H](C)[C@@]2(O)[C@@H](C=C(CO)C[C@]3(O)C(=O)C(C)=C[C@@H]23)[C@@H]2C(C)(C)[C@]12OC(C)=O [PMA, Phorbol 12-myristate 13-acetate]",,reduced,mostly GFP-positive,significant reduction,three- to eight-fold

# From patent US10233426B2, “Method for inducing cardiac differentiation of pluripotent stem cell with low-molecular compounds” (KYOTO UNIVERSITY, priority 2014, dated 2019)
